Data: patent publication US6417167B1, “Lyophilized compositions containing shingoglycolipid and process for preparing them” (Kirin Beer Kabushiki Kaisha, priority 1997, dated 2002)
Like-named read-outs stand apart in the source and are kept apart here.

How the values were obtained:
Format in all cases: physicochemical
[1] = Selection of a solvent for the active component: solubility judged by naked eye; conditions: thermodynamic from solid, read-out: Judgment of solubility (by naked eye)
Method: First, 1 mg of the active component (KRN7000) was weighed and stirred in 100 ml of a variety of solvents (Table 3) in a heated bath to 80° C. for 20 minutes in order to form a solution having a concentration of 10 μg/ml. With respect to the solvents which were judged to have successfully dissolved 10 μg/ml of the active component, dissolution was further tried in the same manner as above in order to form a solution having a concentration of 100 μg/ml. With respect to the solvents which were judged to have successfully dissolved 100 μg/ml of the active component, dissolution was further tried in the same manner as above in order to form a solution having a concentration of 200 μg/ml. After cooling with running water, the solubility of the component was judged.
The solubility of the component was judged by the test described below. First, transparent colorless glass vials having a volume of 5 ml were charged with about 1.5 ml portion of each sample and sealed up. The vial was cleaned outside and placed beneath the white light source in a darkroom for observation with naked eye at the position of a luminous intensity of about 5,000 lux. When the sample was clear with no precipitates, it was judged that the active component was dissolved.

[2] = Lyophilized preparations with Polysorbate 20 alone: re-solubility immediately after lyophilization; conditions: KRN7000 200 μg/ml, reconstituted in 1 ml distilled water for injection
Method: (§1) Next, 20 mg of the active component (KRN7000) was weighed and stirred in 100 ml of the Polysorbate solutions having a variety of concentrations in a heated bath to 80° C. for 20 minutes in order to form a solution. After cooling with running water, the mixture was filtered through a 0.22 μm filter, and transparent colorless glass vials having a volume of 5 ml were charged with a 1 ml portion of each of a variety of solutions and subjected to lyophilizaiton. Lyophilization was carried out under the condition of preliminary freezing at −40° C. for 2 hours and drying at −20° C. for 24 hours, 10° C. for 12 hours, and finally at 25° C. for 5 hours to give the lyophilized product. The degree of vacuum was set at 0.1 Torr or less during drying step.
After the lyophilization step, the lyophilized composition was reconstituted in 1 ml of distilled water for injection, left standing for 30 minutes, and solubility was judged when the foams generated on reconstituiton disappeared.
(§2) The solubility was judged by cleaning the outside of the vial and placing it beneath the white light source in a darkroom for observation with naked eye at the position of a luminous intensity of about 5,000 lux. When the sample was clear with no precipitates, it was judged that the active component was dissolved.

[3] = Excipient appropriate to lyophilization 2: re-solubility after storage; conditions: lyophilized, Polysorbate 20 0.5%, 25° C.
Method: The lyophilized preparations having mannitol and sucrose added thereto were observed on their variation with the passage of time.
as §1, with “First, Polysorbate 20 was dissolved in distilled water in a concentration of 0.5%, and the saccharides were dissolved in such concentrations as listed in Table 7. Next,” for “Next,”, “solvents” for “Polysorbate solutions having a variety of concentrations”, “solutions thus obtained” for “solutions”, “lyophilization.” for “lyophilizaiton.”
(§3) After the lyophilization step, the lyophilized composition was stored at 25° C. After storage for 1 month, the lyophilized composition was reconstituted in 1 ml of distilled water for injection, left standing for 30 minutes, and solubility was judged when the foams generated on reconstitution disappeared. The samples judged in solution were further stored, and judged again of their solubility after 4 months.
as §2

[4] = Additives for improving re-solubility during storage, mannitol as excipient; conditions: lyophilized, Polysorbate 20 0.5%, 25° C.
Method: as §1, with “First, Polysorbate 20 was dissolved in distilled water in a concentration of 0.5%, and mannitol and a variety of additives such concentrations as listed in Table 8. Next,” for “Next,”, “solvents” for “Polysorbate solutions having a variety of concentrations”, “with” for “with a”, “solutions thus obtained” for “solutions”, “lyophilization.” for “lyophilizaiton.”
as §3, §2

CCCCCCCCCCCCCCCCCCCCCCCCCC(=O)N[C@@H](CO[C@H]1O[C@H](CO)[C@H](O)[C@H](O)[C@H]1O)[C@H](O)[C@H](O)CCCCCCCCCCCCCC [KRN7000, (2S,3S,4R)-1-(α-D-galactopyranosyloxy)-2-hexacosanoylamino-3,4-octadecanediol]
< 10 µg/mL: solubility at 20 min ([1]; 0.5% Cremophor, 80 °C, aqueous with cosolvent or surfactant or cyclodextrin, solvent 0.5% Cremophor, KRN7000 10 μg/ml) | solubility at 20 min ([1]; 0.5% HCO 50, 80 °C, aqueous with cosolvent or surfactant or cyclodextrin, solvent 0.5% HCO 50, KRN7000 10 μg/ml) | solubility at 20 min ([1]; 0.5% HCO 60, 80 °C, aqueous with cosolvent or surfactant or cyclodextrin, solvent 0.5% HCO 60, KRN7000 10 μg/ml) | solubility at 20 min ([1]; 0.5% Polyoxamer 188, 80 °C, aqueous with cosolvent or surfactant or cyclodextrin, solvent 0.5% Polyoxamer 188, KRN7000 10 μg/ml) | solubility at 20 min ([1]; 1N HCl, 80 °C, simulated gastric fluid, solvent 1N HCl, KRN7000 10 μg/ml) | solubility at 20 min ([1]; 1N NaOH, 80 °C, aqueous buffer, solvent 1N NaOH, KRN7000 10 μg/ml) | solubility at 20 min ([1]; Distilled water, 80 °C, water, solvent Distilled water, KRN7000 10 μg/ml)
+ (not dissolved (or deposited)): Re-solubility immediately after lyophilization (by naked eye) ([2]; Polysorbate 20 0.5%) | Re-solubility immediately after lyophilization (by naked eye) ([2]; Polysorbate 20 1.0%) | Re-solubility immediately after lyophilization (by naked eye) ([2]; Polysorbate 20 2.0%) | Re-solubility after storage (by naked eye) ([3]; Mannitol 10%, 4 months) | Re-solubility after storage (by naked eye) ([3]; Sucrose 9.6%, 4 months) | Re-solubility after storage (by naked eye) ([4]; Mannitol 10%, no additive, 4 months) | Re-solubility after storage (by naked eye) ([4]; Mannitol 15%, Glycerol, 0.1%, 1 month) | Re-solubility after storage (by naked eye) ([4]; Mannitol 15%, Glycerol, 0.1%, 4 months) | Re-solubility after storage (by naked eye) ([4]; Mannitol 15%, Glycerol, 1%, 1 month) | Re-solubility after storage (by naked eye) ([4]; Mannitol 15%, Glycerol, 1%, 4 months) | Re-solubility after storage (by naked eye) ([4]; Mannitol 15%, PEG400, 1%, 1 month) | Re-solubility after storage (by naked eye) ([4]; Mannitol 15%, PEG400, 1%, 4 months) | Re-solubility after storage (by naked eye) ([4]; Mannitol 15%, Sodium deoxycholate, 1%, 1 month) | Re-solubility after storage (by naked eye) ([4]; Mannitol 15%, Sodium deoxycholate, 1%, 4 months) | Re-solubility after storage (by naked eye) ([4]; Mannitol 15%, no additive, 1 month) | Re-solubility after storage (by naked eye) ([4]; Mannitol 15%, no additive, 4 months)
− (dissolved): Re-solubility after storage (by naked eye) ([3]; Mannitol 10%, 1 month) | Re-solubility after storage (by naked eye) ([3]; Sucrose 9.6%, 1 month) | Re-solubility after storage (by naked eye) ([4]; Mannitol 10%, Sodium deoxycholate, 1%, 1 month) | Re-solubility after storage (by naked eye) ([4]; Mannitol 10%, Sodium deoxycholate, 1%, 4 months) | Re-solubility after storage (by naked eye) ([4]; Mannitol 10%, no additive, 1 month)
> 200 µg/mL: solubility at 20 min ([1]; 0.5% Polysorbate 20, 80 °C, aqueous with cosolvent or surfactant or cyclodextrin, solvent 0.5% Polysorbate 20, KRN7000 200 μg/ml) | solubility at 20 min ([1]; Ethanol, 80 °C, organic solvent or mixture, solvent Ethanol, KRN7000 200 μg/ml)
> 10 µg/mL: solubility at 20 min ([1]; 0.5% Polysorbate 20, 80 °C, aqueous with cosolvent or surfactant or cyclodextrin, solvent 0.5% Polysorbate 20, KRN7000 10 μg/ml) | solubility at 20 min ([1]; 0.5% Polysorbate 80, 80 °C, aqueous with cosolvent or surfactant or cyclodextrin, solvent 0.5% Polysorbate 80, KRN7000 10 μg/ml) | solubility at 20 min ([1]; Ethanol, 80 °C, organic solvent or mixture, solvent Ethanol, KRN7000 10 μg/ml) | solubility at 20 min ([1]; Glycerol, 80 °C, organic solvent or mixture, solvent Glycerol, KRN7000 10 μg/ml) | solubility at 20 min ([1]; Macrogol 400, 80 °C, organic solvent or mixture, solvent Macrogol 400, KRN7000 10 μg/ml) | solubility at 20 min ([1]; Propylene glycol, 80 °C, organic solvent or mixture, solvent Propylene glycol, KRN7000 10 μg/ml)
10 to 100 µg/mL: solubility at 20 min ([1]; 0.5% Polysorbate 80, 80 °C, aqueous with cosolvent or surfactant or cyclodextrin, solvent 0.5% Polysorbate 80, KRN7000 100 μg/ml) | solubility at 20 min ([1]; Glycerol, 80 °C, organic solvent or mixture, solvent Glycerol, KRN7000 100 μg/ml) | solubility at 20 min ([1]; Macrogol 400, 80 °C, organic solvent or mixture, solvent Macrogol 400, KRN7000 100 μg/ml) | solubility at 20 min ([1]; Propylene glycol, 80 °C, organic solvent or mixture, solvent Propylene glycol, KRN7000 100 μg/ml)
> 100 µg/mL: solubility at 20 min ([1]; 0.5% Polysorbate 20, 80 °C, aqueous with cosolvent or surfactant or cyclodextrin, solvent 0.5% Polysorbate 20, KRN7000 100 μg/ml) | solubility at 20 min ([1]; Ethanol, 80 °C, organic solvent or mixture, solvent Ethanol, KRN7000 100 μg/ml)
